Experimental data taken from patent US10947260B2, “Phosphinolactone derivatives and pharmaceutical uses thereof” (INSTITUT NATIONAL DE LA SANTE ET DE LA RECHERCHE MEDICALE …, priority 2016, dated 2021).

Key:
[1] = test system: mice treated with Aβ25-35; assay: Spontaneous alternation in the Y-maze, Aβ25-35 amyloid toxicity model; type: in vivo; settings: for active dose (neuroprotective effects): non-transgenic AD model, ICV Aβ25-35 in mice
Protocol: Male mice (RjOrl:SWISS) from Janvier laboratories (Le Genest-Saint-Isle, France), aged 7-9 weeks and weighing 32±2 g were used for this study. The animals were grouped in plastic cages with free access to the […] and water, in a regulated environment (23±1° C., humidity 40-60%, 12 h light/dark cycle).
The compounds were solubilized in physiological saline solution (0.9% NaCl) or in dimethylsulfoxide (DMSO) 10% in the saline solution and administered via intraperitoneal route (IP) in a volume of 100 μl per 20 g body weight.
The amyloid-β[25-35] peptide (Aβ25-35) and control peptide (Sc.Aβ) were obtained from Genepep (Saint-Jean-de-Vedas, France). They were solubilized in injectable distilled water at a concentration of 3 mg/ml and stored at −20° C. Before injection, the peptides were incubated at 37° C. for 4 days, which enabled the Aβ25-35 peptide but not the Sc.Aβ, to form oligomers. They were administered via intracerebroventricular route (ICV). The animals were anesthetized by inhaling 2.5% isoflurane (TEM) and were given 3 μl of peptide solution via direct ICV route (Haley and McCormick's method). For injection a 10 μl Hamilton micro-syringe was used at a flow rate of 1 μl/min.
(§1) The animals were tested for spontaneous alternation performance in a Y-maze, an index of spatial working memory. The Y-maze was in grey PVC. Each arm was 40 cm long, 13 cm high, 3 cm wide at the base and 10 cm wide in the upper part, and converging at an equal angle. Each mouse was placed at one end of an arm and was able to move freely through the maze during an 8-min session. The series of arm entries, including any returns in the same arm were visually analysed. Alternation is defined as being consecutive entries in three different arms. The maximum number of alternations is therefore the total number of arm entries less two, and alternation percentage is calculated as (actual alternations/maximum possible alternations)×100. The parameters comprise the alternation percentage (memory index) and the total number of arm entries (exploratory index).
[…] After one week, the animals were tested for behavioural performance, then sacrificed and the brain dissected for biochemical analyses.
On Day 7, after the injections of 3b and amyloid peptide, the mice were tested for their ability to alternate in the Y-maze, a spatial working memory test. […] The mice were then tested for passive avoidance response, a long-term non-spatial memory test. with training on Day 8 and recall on Day 9 after the injections (FIG. 1c).

[2] = test system: mice treated with peptide Aβ25-35; assay: In vivo screening of derivatives as neuroprotectors (spontaneous alternation, passive avoidance, ROS level), Aβ25-35 model
Protocol: FIG. 7: Screening of phosphinolactones as neuroprotectors in mice treated with peptide Aβ25-35: (a) spontaneous alternation; (b) passive avoidance step-through latency; (c) Levels of reactive oxygen species in hippocampus. The mice were given compound 3b (0.3, 0.7 mg/kg IP) or a dose of each compound (0.3 mg/kg IP) 20 min before I′Aβ25-35 or the control peptide Sc.Aβ (9 nmol ICV). The animals were tested in the Y-maze on Day 7 after the ICV injections and for passive avoidance on Days 8-9, and then sacrificed. In each graph at (a-c), the 50% protection level compared with the deficit induced by Aβ25-35 is plotted as a dotted line. It is to be noted that at (a), the column represents the median and the error bars represent the deviations 25%-75% (=asymmetric deviations). n=12 at (a, b) and 5-6 at (c). ANOVA on groups 1-4: F(3.63)=7.95, p<0.001 at (b); H=24.1, p<0.0001 at (c); F(3.44)=6.33, p<0.01 at (d). *p<0.05, **p<0.01, ***p<0.001 compared with group (Sc.Aβ+V); #p<0.05, ##p<0.01, ###p<0.001 compared with group (Aβ25-35+V); Dunnett test at (a, c) and Dunn at (b). The values of the groups 5-12 (screened compounds) were analysed by t-test at (a, c) or Mann-Whitney at (b).
From the molecules derived from the synthesis, a panel of 8 derivatives was selected and screened for potential neuroprotective efficacy. The compounds were injected at a dose of 0.3 mg/kg IP, i.e. the maximum non-active dose of 3b and compared with 3b injected at 0.3 and 0.7 mg/kg IP. The compounds were injected […] before the Aß25-35 peptide, and the mice were tested for spontaneous alternation on Day 7, passive avoidance on Days 8 and 9 and the ROS level was measured in the hippocampus (FIG. 7). For each response (spontaneous alternation: FIG. 7a; step-through latency in passive avoidance: FIG. 7b, and DCF fluorescence level: FIG. 7c), a 50% level of the effect between the values of the ScAß and Aß25-35 animals was taken as criterion of efficacy. […] Compound 3c is an isomer at the position of the chlorine atom of 3b. Regarding compound 3n, this has a 5-pyrimidyl group attached to the phosphorus atom, and for compound 3l it is a 4-pyridinyl group.

APPSwe mice = assay: Spontaneous alternation in Y-maze, transgenic APPSwe mice, chronic treatment; type: in vivo; settings: for alternation deficit of APPSwe animals: 1 mg/kg/d
Protocol: FIG. 8: Spontaneous alternation (a, b) and total number of arm entries (c, d) of APPSwe mice given compound 3b, in the Y-maze, after treatment of one month (a, c) and 2 months (b, d). The animals were given compound 3b (0.7 or 2 mg/kg IP) 3 times per week for 1 or 2 months. N=6-15 per group. ANOVA: F(5.49)=3.84, p<0.01 at (a); F(5.54)=1.54, p>0.05 at (b); F<1 at (c) et (d). *p<0.05, **p<0.01 compared with group (WT+V); #p<0.05 compared with group (APPSwe+V); Dunnett test at (a, b).
FIG. 10: Spontaneous alternation (a, b) and number of arm entries (c, d) for APPSwe mice treated with compound 3c, in the Y-maze, after treatment for 1 month (a, c) or 2 months (b, d). The animals were given compound 3c (1 mg/kg IP) 3 times per week for 1 or 2 months. N=10-13 per group. ANOVA: F(3.45)=3.61, p<0.05 at (a); F(3.38)=6.33, p<0.01 at (b); F<1 at (c) and (d). *p<0.05, ***p<0.001 compared with group WT/V; #p<0.05 compared with group APPSwe/V; Dunnett test at (a, b).
as §1
TG2576 mice, over-expressing the human amyloid precursor protein carrying the Swedish double mutation APPSwe, develop the pathology towards the age of 8-10 months and up until 15-17 months, age at which 95% of the animals show behavioural, biochemical and morphological signs of the disease. Compound 3b was administered under chronic treatment at doses of 0.7 mg/kg/d IP and then 2 mg/kg/d IP. The effect of compound 3c, at a dose of 1 mg/kg/j IP, was also documented.

Compound | spontaneous alternation deficit induced by Aβ25-35 (Y-maze) ([1]; 0.3 mg/kg IP (range tested 0.03-0.7; only this dose efficient), Day 7) | active dose (neuroprotective effects) ([1]; IP) [mg/kg] | criterion of efficacy: 50% level of the effect between ScAβ and Aβ25-35 animals (spontaneous alternation, step-through latency, DCF fluorescence) ([2]; 0.3 mg/kg IP) | efficacy compared with 3b ([2]; Aβ25-35 model) | efficiency in the screening of the molecules in the series ([2]; Aβ25-35 model) | alternation deficit of APPSwe animals (APPSwe mice; 1 month) | alternation deficit of APPSwe animals (APPSwe mice; 2 months) | minimum active dose ([1]; dose-dependent experiments, Aβ25-35 model, IP) [mg/kg] | maximum non-active dose of 3b ([2]; IP) [mg/kg] | alternation in the WT animals (APPSwe mice; lowest dose (0.7 mg/kg/d), 2 months) | spontaneous alternation performance of wild-type control animals (APPSwe mice; treatment for one month, 0.7 or 2 mg/kg IP)
CC1(C)COP(=O)(c2ccc(Cl)cc2)C(C)(C)N1 (racemic) [Compound 3c, (±)-2-(4-Chlorophenyl)-2-oxo-3,3,5,5-tetramethyl-[1,4,2]-oxazaphosphinane] | significantly prevents spontaneous alternation deficit | 0.3 | met the criterion for the 3 parameters | as effective at 0.3 mg/kg IP as 3b at 0.7 mg/kg IP | highly efficient | attenuated | significantly blocked |  |  |  | 
CC1(C)COP(=O)(c2cccc(Cl)c2)C(C)(C)N1 (racemic) [Compound 3b, (±)-2-(3-Chlorophenyl)-2-oxo-3,3,5,5-tetramethyl-[1,4,2]-oxazaphosphinane] |  | 0.7 |  |  |  |  |  | 0.7 | 0.3 | appears to impact alternation | does not affect the performance
